Results as given in patent US10626144B2, “Peptide derivatives and uses thereof” (Nosopharm, priority 2014, dated 2020).
Square brackets hold non-standard residues; d marks the D form. Peptide text beside a SMILES is read from it. ξ: configuration not given here. Phe(3-CF3) = N[C@@H](Cc1cccc(C(F)(F)F)c1)C(=O)O; Phe(4-CF3) = N[C@@H](Cc1ccc(C(F)(F)F)cc1)C(=O)O; Phe(2-CF3) = N[C@@H](Cc1ccccc1C(F)(F)F)C(=O)O; Phe(2,4-Me2) = Cc1ccc(C[C@H](N)C(=O)O)c(C)c1; Phe(2-CONH2) = NC(=O)c1ccccc1C[C@H](N)C(=O)O; Phe(3,4-F2) = N[C@@H](Cc1ccc(F)c(F)c1)C(=O)O; Phe(3,5-F2) = N[C@@H](Cc1cc(F)cc(F)c1)C(=O)O; Phe(3-CN) = N#Cc1cccc(C[C@H](N)C(=O)O)c1; Phe(3-OMe) = COc1cccc(C[C@H](N)C(=O)O)c1; Phe(4-Cl) = N[C@@H](Cc1ccc(Cl)cc1)C(=O)O; Oic(3aξ,7aξ) = O=C(O)[C@@H]1CC2CCCCC2N1; Phe(2-CN) = N#Cc1ccccc1C[C@H](N)C(=O)O; Phe(2-Cl) = N[C@@H](Cc1ccccc1Cl)C(=O)O; Dab(3S-OH) = NC[C@H](O)[C@H](N)C(=O)O; Phe(2-Me) = Cc1ccccc1C[C@H](N)C(=O)O; His(π-Me) = Cn1cncc1C[C@H](N)C(=O)O; ΔZArg = N=C(N)NCC/C=C(\N)C(=O)O; NMeK = CN[C@@H](CCCCN)C(=O)O; dOrn = NCCC[C@@H](N)C(=O)O; Pip = O=C(O)[C@@H]1CCCCN1

Tests used:
Assay in all cases: MIC, broth microdilution (CLSI), reference strain
Details in all cases: CAMHB
[1] = test system: Escherichia coli ATCC 25922
[2] = test system: Pseudomonas aeruginosa ATCC 27853
[3] = test system: Acinetobacter baumannii ATCC 19606
[4] = test system: Staphylococcus aureus ATCC 13709

| SMILES | Ec: MIC Escherichia coli ATCC 25922 [1] | Pa: MIC Pseudomonas aeruginosa ATCC 27853 [2] | Ab: MIC Acinetobacter baumannii ATCC 19606 [3] | Sa: MIC Staphylococcus aureus ATCC 13709 [4] |
| --- | --- | --- | --- | --- |
| Cc1ccc(C[C@H](NC(=O)[C@@H]2CCCN2C(=O)[C@@H](CCCN)NC(=O)CNC(=O)[C@H](C)NC(=O)[C@@H](NC(=O)[C@@H](N)CCCCN)[C@@H](O)CN)C(=O)N[C@@H](CCCCN)C(=O)N/C(=C\CCNC(=N)N)C(=O)O)c(C)c1 [24.78] (H-K[Dab(3S-OH)]AG[dOrn]P[Phe(2,4-Me2)]K[ΔZArg]-OH) | + (≤32 μg/mL) | − (>32 μg/mL) | − (>32 μg/mL) | ++ (≤8 μg/mL) |
| C[C@H](NC(=O)[C@@H](NC(=O)[C@@H](N)CCCCN)[C@@H](O)CN)C(=O)NCC(=O)N[C@H](CCCN)C(=O)N1CCC[C@H]1C(=O)N[C@@H](Cc1ccccc1C(F)(F)F)C(=O)N[C@@H](CCCCN)C(=O)N/C(=C\CCNC(=N)N)C(=O)O [24.79] (H-K[Dab(3S-OH)]AG[dOrn]P[Phe(2-CF3)]K[ΔZArg]-OH) | + (≤32 μg/mL) | − (>32 μg/mL) | − (>32 μg/mL) | ++ (≤8 μg/mL) |
| C[C@H](NC(=O)[C@@H](NC(=O)[C@@H](N)CCCCN)[C@@H](O)CN)C(=O)NCC(=O)N[C@H](CCCN)C(=O)N1CCC[C@H]1C(=O)N[C@@H](Cc1ccccc1C#N)C(=O)N[C@@H](CCCCN)C(=O)N/C(=C\CCNC(=N)N)C(=O)O [24.81] (H-K[Dab(3S-OH)]AG[dOrn]P[Phe(2-CN)]K[ΔZArg]-OH) | − (>32 μg/mL) | − (>32 μg/mL) | − (>32 μg/mL) | − (>32 μg/mL) |
| C[C@H](NC(=O)[C@@H](NC(=O)[C@@H](N)CCCCN)[C@@H](O)CN)C(=O)NCC(=O)N[C@H](CCCN)C(=O)N1CCC[C@H]1C(=O)N[C@@H](Cc1ccccc1C(N)=O)C(=O)N[C@@H](CCCCN)C(=O)N/C(=C\CCNC(=N)N)C(=O)O [24.82] (H-K[Dab(3S-OH)]AG[dOrn]P[Phe(2-CONH2)]K[ΔZArg]-OH) | − (>32 μg/mL) | − (>32 μg/mL) | − (>32 μg/mL) | + (≤32 μg/mL) |
| C[C@H](NC(=O)[C@@H](NC(=O)[C@@H](N)CCCCN)[C@@H](O)CN)C(=O)NCC(=O)N[C@H](CCCN)C(=O)N1CCC[C@H]1C(=O)N[C@@H](Cc1ccc(F)c(F)c1)C(=O)N[C@@H](CCCCN)C(=O)N/C(=C\CCNC(=N)N)C(=O)O [24.84] (H-K[Dab(3S-OH)]AG[dOrn]P[Phe(3,4-F2)]K[ΔZArg]-OH) | ++ (≤8 μg/mL) | − (>32 μg/mL) | − (>32 μg/mL) | ++ (≤8 μg/mL) |
| C[C@H](NC(=O)[C@@H](NC(=O)[C@@H](N)CCCCN)[C@@H](O)CN)C(=O)NCC(=O)N[C@H](CCCN)C(=O)N1CCC[C@H]1C(=O)N[C@@H](Cc1cccc(C(F)(F)F)c1)C(=O)N[C@@H](CCCCN)C(=O)N/C(=C\CCNC(=N)N)C(=O)O [24.87] (H-K[Dab(3S-OH)]AG[dOrn]P[Phe(3-CF3)]K[ΔZArg]-OH) | + (≤32 μg/mL) | − (>32 μg/mL) | − (>32 μg/mL) | ++ (≤8 μg/mL) |
| C[C@H](NC(=O)[C@@H](NC(=O)[C@@H](N)CCCCN)[C@@H](O)CN)C(=O)NCC(=O)N[C@H](CCCN)C(=O)N1CCC[C@H]1C(=O)N[C@@H](Cc1cccc(C#N)c1)C(=O)N[C@@H](CCCCN)C(=O)N/C(=C\CCNC(=N)N)C(=O)O [24.89] (H-K[Dab(3S-OH)]AG[dOrn]P[Phe(3-CN)]K[ΔZArg]-OH) | + (≤32 μg/mL) | − (>32 μg/mL) | − (>32 μg/mL) | ++ (≤8 μg/mL) |
| COc1cccc(C[C@H](NC(=O)[C@@H]2CCCN2C(=O)[C@@H](CCCN)NC(=O)CNC(=O)[C@H](C)NC(=O)[C@@H](NC(=O)[C@@H](N)CCCCN)[C@@H](O)CN)C(=O)N[C@@H](CCCCN)C(=O)N/C(=C\CCNC(=N)N)C(=O)O)c1 [24.92] (H-K[Dab(3S-OH)]AG[dOrn]P[Phe(3-OMe)]K[ΔZArg]-OH) | + (≤32 μg/mL) | − (>32 μg/mL) | − (>32 μg/mL) | ++ (≤8 μg/mL) |
| C[C@H](NC(=O)[C@@H](NC(=O)[C@@H](N)CCCCN)[C@@H](O)CN)C(=O)NCC(=O)N[C@H](CCCN)C(=O)N1CCC[C@H]1C(=O)N[C@@H](Cc1ccc(C(F)(F)F)cc1)C(=O)N[C@@H](CCCCN)C(=O)N/C(=C\CCNC(=N)N)C(=O)O [24.94] (H-K[Dab(3S-OH)]AG[dOrn]P[Phe(4-CF3)]K[ΔZArg]-OH) | ++ (≤8 μg/mL) | − (>32 μg/mL) | − (>32 μg/mL) | ++ (≤8 μg/mL) |
| CN[C@@H](CCCCN)C(=O)N[C@H](C(=O)N[C@@H](C)C(=O)NCC(=O)N[C@H](CCCN)C(=O)N1CCC[C@H]1C(=O)N[C@@H](Cc1ccc(Cl)cc1)C(=O)N[C@@H](CCCCN)C(=O)N/C(=C\CCNC(=N)N)C(=O)O)[C@@H](O)CN [24.98] (H-[NMeK][Dab(3S-OH)]AG[dOrn]P[Phe(4-Cl)]K[ΔZArg]-OH) | + (≤32 μg/mL) | − (>32 μg/mL) | − (>32 μg/mL) | ++ (≤8 μg/mL) |

The remaining lines, values ahead:

| Ec: MIC Escherichia coli ATCC 25922 [1] | Pa: MIC Pseudomonas aeruginosa ATCC 27853 [2] | Ab: MIC Acinetobacter baumannii ATCC 19606 [3] | Sa: MIC Staphylococcus aureus ATCC 13709 [4] | SMILES |
| --- | --- | --- | --- | --- |
| + (≤32 μg/mL) | − (>32 μg/mL) | − (>32 μg/mL) | + (≤32 μg/mL) | C[C@H](NC(=O)[C@@H](NC(=O)[C@@H](N)CCCCN)[C@@H](O)CN)C(=O)NCC(=O)N[C@H](CCCN)C(=O)N1CCCC[C@H]1C(=O)N[C@@H](Cc1cnc[nH]1)C(=O)N[C@@H](CCCCN)C(=O)N/C(=C\CCNC(=N)N)C(=O)O [24.74] (H-K[Dab(3S-OH)]AG[dOrn][Pip]HK[ΔZArg]-OH) |
| + (≤32 μg/mL) | − (>32 μg/mL) | − (>32 μg/mL) | + (≤32 μg/mL) | C[C@H](NC(=O)[C@@H](NC(=O)[C@@H](N)CCCCN)[C@@H](O)CN)C(=O)NCC(=O)N[C@H](CCCN)C(=O)N1C2CCCCC2C[C@H]1C(=O)N[C@@H](Cc1cnc[nH]1)C(=O)N[C@@H](CCCCN)C(=O)N/C(=C\CCNC(=N)N)C(=O)O (stereo partly drawn) [24.75] (H-K[Dab(3S-OH)]AG[dOrn][Oic(3aξ,7aξ)]HK[ΔZArg]-OH) |
| + (≤32 μg/mL) | − (>32 μg/mL) | − (>32 μg/mL) | ++ (≤8 μg/mL) | C[C@H](NC(=O)[C@@H](NC(=O)[C@@H](N)CCCCN)[C@@H](O)CN)C(=O)NCC(=O)N[C@H](CCCN)C(=O)N1CCC[C@H]1C(=O)N[C@@H](Cc1ccccc1Cl)C(=O)N[C@@H](CCCCN)C(=O)N/C(=C\CCNC(=N)N)C(=O)O [24.80] (H-K[Dab(3S-OH)]AG[dOrn]P[Phe(2-Cl)]K[ΔZArg]-OH) |
| + (≤32 μg/mL) | − (>32 μg/mL) | − (>32 μg/mL) | ++ (≤8 μg/mL) | Cc1ccccc1C[C@H](NC(=O)[C@@H]1CCCN1C(=O)[C@@H](CCCN)NC(=O)CNC(=O)[C@H](C)NC(=O)[C@@H](NC(=O)[C@@H](N)CCCCN)[C@@H](O)CN)C(=O)N[C@@H](CCCCN)C(=O)N/C(=C\CCNC(=N)N)C(=O)O [24.83] (H-K[Dab(3S-OH)]AG[dOrn]P[Phe(2-Me)]K[ΔZArg]-OH) |
| + (≤32 μg/mL) | − (>32 μg/mL) | − (>32 μg/mL) | ++ (≤8 μg/mL) | C[C@H](NC(=O)[C@@H](NC(=O)[C@@H](N)CCCCN)[C@@H](O)CN)C(=O)NCC(=O)N[C@H](CCCN)C(=O)N1CCC[C@H]1C(=O)N[C@@H](Cc1cc(F)cc(F)c1)C(=O)N[C@@H](CCCCN)C(=O)N/C(=C\CCNC(=N)N)C(=O)O [24.86] (H-K[Dab(3S-OH)]AG[dOrn]P[Phe(3,5-F2)]K[ΔZArg]-OH) |
| + (≤32 μg/mL) | − (>32 μg/mL) | − (>32 μg/mL) | + (≤32 μg/mL) | C[C@H](NC(=O)[C@@H](NC(=O)[C@@H](N)CCCCN)[C@@H](O)CN)C(=O)NCC(=O)N[C@H](CCCN)C(=O)N1CCC[C@H]1C(=O)N[C@@H](Cc1cncn1C)C(=O)N[C@@H](CCCCN)C(=O)N/C(=C\CCNC(=N)N)C(=O)O [24.91] (H-K[Dab(3S-OH)]AG[dOrn]P[His(π-Me)]K[ΔZArg]-OH) |
